Source: PubChem BioAssay (NCI)
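Briefly, cells in 96-well plates were exposed to five compound concentrations for 48 h, and endpoints were estimated by linear interpolation. GI50: concentration for 50% inhibition of growth. Definition used: TGI = concentration required for complete inhibition of growth.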

How the values were obtained:
Test in all cases: NCI tumour cell line growth inhibition, 48 h
[1] = tested on: 786-0 renal
[2] = tested on: A498 renal
[3] = tested on: A549 NSCLC
[4] = tested on: ACHN renal
[5] = tested on: BT-549 breast
[6] = tested on: CAKI-1 renal
[7] = tested on: CCRF-CEM leukemia
[8] = tested on: COLO 205 colon
[9] = tested on: DU-145 prostate
[10] = tested on: HCC-2998 colon
[11] = tested on: HCT-116 colon
[12] = tested on: HCT-15 colon
[13] = tested on: HL-60(TB) leukemia
[14] = tested on: HOP-62 NSCLC
[15] = tested on: HOP-92 NSCLC
[16] = tested on: HS 578T breast
[17] = tested on: HT29 colon
[18] = tested on: IGROV1 ovarian
[19] = tested on: K-562 leukemia
[20] = tested on: KM12 colon
[21] = tested on: LOX IMVI melanoma
[22] = tested on: M14 melanoma
[23] = tested on: MALME-3M melanoma
[24] = tested on: MCF7 breast
[25] = tested on: MDA-MB-231 breast
[26] = tested on: MDA-MB-435
[27] = tested on: MOLT-4 leukemia
[28] = tested on: NCI-H226 lung
[29] = tested on: NCI-H23 lung
[30] = tested on: NCI-H460 lung
[31] = tested on: NCI-H522 lung
[32] = tested on: NCI/ADR-RES ovarian
[33] = tested on: OVCAR-3 ovarian
[34] = tested on: OVCAR-4 ovarian
[35] = tested on: OVCAR-5 ovarian
[36] = tested on: OVCAR-8 ovarian
[37] = tested on: RPMI-8226 leukemia
[38] = tested on: RXF 393 renal
[39] = tested on: SF-268 CNS
[40] = tested on: SF-295 CNS
[41] = tested on: SF-539 CNS
[42] = tested on: SK-MEL-28 melanoma
[43] = tested on: SK-MEL-5 melanoma
[44] = tested on: SK-OV-3 ovarian
[45] = tested on: SN12C renal
[46] = tested on: SNB-19 CNS
[47] = tested on: SNB-75 CNS
[48] = tested on: SR leukemia
[49] = tested on: SW-620 colon
[50] = tested on: T-47D breast
[51] = tested on: TK-10 renal
[52] = tested on: U251 CNS
[53] = tested on: UACC-257 melanoma
[54] = tested on: UACC-62 melanoma
[55] = tested on: UO-31 renal

In the case of `CN1CCc2c(c3ccccc3c3ccccc23)C1`, the GI50 [1] is reported as 6.23 µM, the TGI [1] is reported as 21.3 µM and the GI50 [2] is reported as 1.81 µM. For the same molecule, the TGI [2] was 7.41 µM, the GI50 [3] was 3.25 µM and the TGI [3] was 18.5 µM. For the same molecule, the GI50 [4] was 3.6 µM, the TGI [4] was 14.5 µM and the GI50 [5] was 12.4 µM. The TGI [5] was 29 µM, the GI50 [6] was 4.12 µM and the TGI [6] was 18.5 µM. For the same molecule, the GI50 [7] was 4.62 µM, the TGI [7] was 21.5 µM and the GI50 [8] was 3.32 µM. It also gave a TGI [8] of 11.1 µM, a GI50 [9] of 5.28 µM and a TGI [9] of 20.5 µM. For the same molecule, the GI50 [10] was 5.81 µM, the TGI [10] was 20.2 µM and the GI50 [11] was 3.93 µM. It also gave a TGI [11] of 13.5 µM, a GI50 [12] of 4.43 µM and a TGI [12] of 51.9 µM. The GI50 [13] was 3.32 µM, the TGI [13] was 10.2 µM and the GI50 [14] was 7.11 µM. For the same molecule, the TGI [14] was 26.1 µM, the GI50 [15] was 3.31 µM and the TGI [15] was 16.7 µM. The GI50 [16] was 3.29 µM, the TGI [16] was 17.8 µM and the GI50 [17] was 4.23 µM. For the same molecule, the TGI [17] was 16.8 µM, the GI50 [18] was 4.45 µM and the TGI [18] was 16.3 µM. It also gave a GI50 [19] of 3.59 µM, a TGI [19] of 14.6 µM and a GI50 [20] of 4.91 µM. For the same molecule, the TGI [20] was 16.8 µM, the GI50 [21] was 3.17 µM and the TGI [21] was 11.2 µM. For the same molecule, the GI50 [22] was 4.34 µM, the TGI [22] was 16.7 µM and the GI50 [23] was 3.34 µM. It also gave a TGI [23] of 11.6 µM, a GI50 [24] of 3.63 µM and a TGI [24] of 13.6 µM. The GI50 [25] was 8.62 µM, the TGI [25] was 32.2 µM and the GI50 [26] was 4.47 µM. It also gave a TGI [26] of 17.3 µM, a GI50 [27] of 3.78 µM and a TGI [27] of 19.9 µM. The GI50 [28] was 3.77 µM, the TGI [28] was 29.3 µM and the GI50 [29] was 5.24 µM. For the same molecule, the TGI [29] was 21.7 µM, the GI50 [30] was 3.67 µM and the TGI [30] was 13.6 µM. The GI50 [31] was 2.76 µM, the TGI [31] was 8.49 µM and the GI50 [32] was 4.58 µM. The TGI [32] was 25.3 µM, the GI50 [33] was 9.92 µM and the TGI [33] was 25.6 µM. The GI50 [34] was 10.3 µM, the TGI [34] was 40.2 µM and the GI50 [35] was 10.9 µM. For the same molecule, the TGI [35] was 38.1 µM, the GI50 [36] was 4.46 µM and the TGI [36] was 43.2 µM. The GI50 [37] was 3.66 µM, the TGI [37] was 12.7 µM and the GI50 [38] was 4.18 µM. For the same molecule, the TGI [38] was 17.1 µM, the GI50 [39] was 6.46 µM and the TGI [39] was 28 µM. For the same molecule, the GI50 [40] was 5.37 µM, the TGI [40] was 33.6 µM and the GI50 [41] was 5.1 µM. For the same molecule, the TGI [41] was 18.1 µM, the GI50 [42] was 4.75 µM and the TGI [42] was 18.9 µM. For the same molecule, the GI50 [43] was 2.97 µM, the TGI [43] was 11.4 µM and the GI50 [44] was 8.86 µM. For the same molecule, the TGI [44] was 44.2 µM, the GI50 [45] was 3.74 µM and the TGI [45] was 27.6 µM. It also gave a GI50 [46] of 4.38 µM, a TGI [46] of 39.1 µM and a GI50 [47] of 6.14 µM. For the same molecule, the TGI [47] was 19.9 µM, the GI50 [48] was 3.44 µM and the TGI [48] was 15.6 µM. The GI50 [49] was 3.59 µM, the TGI [49] was 15.3 µM and the GI50 [50] was 5.68 µM. It also gave a TGI [50] of 26.7 µM, a GI50 [51] of 4.27 µM and a TGI [51] of 15.4 µM. It also gave a GI50 [52] of 3.85 µM, a TGI [52] of 16.2 µM and a GI50 [53] of 2.87 µM. The TGI [53] was 8.72 µM, the GI50 [54] was 4.12 µM and the TGI [54] was 16.1 µM. The GI50 [55] was 3.26 µM and the TGI [55] was 17.2 µM.
